Measured values as given in US7601511B2, “Biotin-facilitated transport in gram negative bacteria” (priority 2003, dated 2009).

What was measured:
[1] = test system: E. coli MG1655; test: Effect of added compounds on uptake of biotinylated peptide (competition / block); type: cell-based, Escherichia coli; conditions: 31 amino acid peptide, sampled after 10 minutes
Description: (§1) Uptake assays. Minimal 37° C. overnights were diluted into fresh minimal media and incubated at 37° C. until they reached an OD550 of 0.5. The 10 and 31 amino acid randomized biotinylated peptides were added to the media at a concentration of 1 μg per mL of culture. After addition of the peptide to the culture, 1 mL aliquots were extracted at time intervals up to an hour, washed twice of extracellular peptide using fresh minimal media, then boiled with SDS-PAGE gradient sample buffer. Samples were run on a 10-16% tricine gradient gel (Schägger et al., 1987, Anal. Biochem. 166:368-379) and transferred to nitrocellulose membranes. The resulting Western blots were treated with NeutrAvidin Horseradish Peroxidase Conjugate and SuperSignal West Dura Extended Duration Chemiluminescent Substrate. The membranes were incubated for 5-10 minutes then exposed to X-ray film for 1-10 minutes. Bands on the film were quantified using the AlphaEase 5.5 Densitometry ProGram from Alpha Innotech.
(§2) One mL samples were extracted 10 minutes after the addition of the peptide and analyzed by SDS PAGE as previously described.

[2] = test system: S. aureus; test: Effect of added biotin on uptake of biotinylated peptide (competition); type: cell-based, Staphylococcus aureus; conditions: 31 amino acid peptide; equimolar or 10× equimolar amounts, added five minutes before peptide
Description: as §1, §2

[3] = equimolar or 10× equimolar amounts, added five minutes before peptide

Compound | effect on uptake of biotinylated peptide in E. coli ([1]; CCCP 50 μM added prior to peptide) | effect on uptake of biotinylated peptide in E. coli [1, 3] | effect on uptake of biotinylated peptide in S. aureus [2]
N#CC(C#N)=NNc1cccc(Cl)c1 [CCCP, carbonyl cyanide m-chlorophenylhydrazone] | uptake is blocked |  | 
Cc1ncc(C[n+]2csc(CCO)c2C)c(N)n1 [thiamine] |  | no effect | 
avidin: protein known to tightly bind biotin, purchased from Sigma |  | could competitively inhibit | 
O=C(O)CCCC[C@@H]1SC[C@@H]2NC(=O)N[C@@H]21 [biotin] |  | could be blocked | no effect
bovine serum albumin: similarly sized protein used as control |  | no effect | 
